Common to all, as to assay: NCI-60 cell line screen, 48 h
The subject of assay [1] is EKVX.
Assay [2] concerns HCT-116.
For assay [3], the system named is HCT-15.
Assay [4] has as its system HL-60.
For assay [5], the system named is HT-29.
For assay [6], the system named is K562.
The subject of assay [7] is LOX IMVI.
Assay [8] deals with Malme-3M.
Assay [9] relates to NCI-H460.
The subject of assay [10] is RPMI-8226.
The test system of assay [11] is SF-268.
Assay [12] has as its system SF-295.
Assay [13] deals with SK-MEL-5.
The test system of assay [14] is SN12C.
In assay [15] the test system is UACC-62.
Assay [16] has as its system CAKI-1.
Assay [17] relates to HOP-62.

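Results reflect a 48-hour exposure of cells in 96-well plates to compound at five concentrations. GI50 = concentration required for 50% inhibition of growth.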 Activity calls are given as the source filed them. Rule as the data show it: active = GI50 up to about 1.1 µM and inactive = higher. Some results are limits rather than exact numbers.

Turning to `COc1c(O)c2c3c(cc(C)cc3c1C(C)C)OC2`, the GI50 in assay [1] was > 100 µM (inactive); in assay [2], > 100 µM (inactive); in assay [3] it was more than 100 µM; in [4] it was > 100 µM (inactive); in assay [5], > 100 µM (inactive); in [6], > 100 µM (inactive). The GI50 in assay [7], in [8], in [9], in [10], in assay [11] and in assay [12] was > 100 µM (inactive) each time. Besides, the GI50 in assay [13], in assay [14] and in [15] was > 100 µM (inactive) each time.

For the molecule `Cc1c(C(=O)/C=C/c2ccccc2O)c(=O)n(-c2ccccc2)n1C`, the GI50 is 21.8 µM (inactive) in [16]; 68.7 µM (inactive) in assay [1]; 16.5 µM (inactive) in assay [2]; 24.2 µM in [3]; 35.5 µM (inactive) in assay [5]; 16.9 µM (inactive) in [7]. Also, the GI50 in [8] is 19.4 µM (inactive); in assay [9], 12.9 µM (inactive); in assay [11] it was 37.8 µM (inactive); in assay [12], 14.6 µM (inactive); in assay [13] it was 12.3 µM (inactive); in assay [14] it was 21 µM (inactive). In addition, the GI50 in [15] is 29 µM (inactive).

Turning to `Cc1ccc(-c2nc3c(C(=O)NCCN(C)C)cccc3[nH]2)cc1`, the GI50 was 23.5 µM (inactive) in assay [16]; 24.4 µM (inactive) in [1]; 5.06 µM (inactive) in assay [2]; 13.9 µM in assay [3]; 14.2 µM (inactive) in assay [4]; 15.9 µM (inactive) in assay [17]. For the same molecule, the GI50 is 15.5 µM (inactive) in assay [5]; 13.7 µM (inactive) in [6]; 11.1 µM (inactive) in [7]; 4.89 µM (inactive) in assay [9]; 18.5 µM (inactive) in assay [11]; 16.7 µM (inactive) in assay [12]. Further, the GI50 in assay [13] is 13.7 µM (inactive); in assay [14], 11.5 µM (inactive); in [15], 18.1 µM (inactive).

`O=C(N/C(=C\c1ccc(/C=C(\NC(=O)c2ccccc2)c2nc3cc(Cl)ccc3[nH]2)cc1)c1nc2cc(Cl)ccc2[nH]1)c1ccccc1`: the GI50 is 40.9 µM (inactive) in assay [16]; 29 µM (inactive) in [1]; 17.7 µM (inactive) in [2]; 21.4 µM in assay [3]; 63.4 µM (inactive) in [17]; 26.3 µM (inactive) in assay [5]. The GI50 in assay [6] is 12 µM (inactive); in assay [7], 25.9 µM (inactive); in [8], 87.9 µM (inactive); in assay [9] it was 29.7 µM (inactive); in assay [10] it was 3.99 µM (inactive); in assay [11], 11.8 µM (inactive). For the same molecule, the GI50 is 28.4 µM (inactive) in [12], 17.4 µM (inactive) in assay [13], 30.1 µM (inactive) in assay [14] and 16.6 µM (inactive) in assay [15].

`Cc1cccc(C)c1NC(=O)CCCC(=O)C(C#N)c1ccccc1` (centres undefined): the GI50 in assay [16] was > 100 µM (inactive); in assay [1], > 10 µM (inactive); in [2], > 100 µM (inactive); in assay [3], more than 10 µM; in assay [4], > 100 µM (inactive); in assay [17] it was > 10 µM (inactive). Moreover, the GI50 in [5] was > 10 µM (inactive); in [6], > 100 µM (inactive); in assay [9], > 10 µM (inactive); in [10] it was > 100 µM (inactive); in assay [11], > 10 µM (inactive); in assay [12], > 10 µM (inactive). The results for the GI50 in [13], in assay [14] and in [15] were > 100 µM (inactive), > 10 µM (inactive) and > 10 µM (inactive), respectively.

The values above are taken from ChEMBL document CHEMBL1201862, “PubChem BioAssay data set” (2004).
